Laboratory results as given in patent US6498159B1, “Phthalazine derivatives and remedies for erectile dysfunction” (Eisai Co., Ltd., priority 1998, dated 2002).
Structures can show the parent of a compound that is named as a salt.

Target: PDE5 (Sus scrofa, UniProt A0A287B475)
Assay: Inhibitory action on the enzyme cGMP-PDE obtained from porcine platelets
Assay type: biochemical
Conditions: 1 μM cGMP substrate, 1 mM EGTA, read-out: PDE 5 IC50
Procedure: 1) Inhibitory Action on the Enzyme cGMP-PDE Obtained from Porcine Platelets
The inhibitory activity of a test compound on the enzyme cGMP-PDE prepared from porcine platelets was determined by adding a solution of the test compound dissolved in DMSO to a reaction solution, where 1 μM cGMP was used as the substrate in the presence of 1 mM EGTA in accordance with a method of Tompson et al. The final concentration of DMSO in the reaction solution was 1% or less. Preparation of cGMP-PDE was conducted as follows. Porcine platelets were added to buffer A (20 mM Tris/HCl, 2 mM magnesium acetate, 10 mM 2-mercaptoethanol, 0.1 mM EGTA; pH 7.4), and then sonicated. The resulting suspension was centrifuged at 100,000×g for 60 min, and the resulting supernatant was subjected to a column (DEAE-Toyopearl 650S produced by Tosoh, Tokyo, Japan). After the column was washed with buffer A, the enzyme was eluted with a gradient of from 0.075 to 0.25 M NaCl in buffer A to give a CGMP-PDE fraction. The resulting fraction was dialyzed, concentrated and stored.

## COc1ccc(CNc2nnc(-c3cccnc3)c3ccc(C#N)cc23)cc1Cl [Example 1, 4-(3-Chloro-4-methoxybenzyl)amino-6-cyano-1-(3-pyridyl)phthalazine Dihydrochloride]
  IC50: 0.78 nM

## COc1ccc(CNc2nnc(-c3ccccn3)c3ccc(C#N)cc23)cc1Cl [Example 2, 4-(3-Chloro-4-methoxybenzyl)amino-6-cyano-1-(2-pyridyl)phthalazine Dihydrochloride]
  IC50: 0.3 nM

## COc1ccc(CNc2nnc(N3CCC(C#N)CC3)c3ccc(C#N)cc23)cc1Cl [Example 3, 4-(3-Chloro-4-methoxybenzyl)amino-6-cyano-1-(4-cyanopiperidino)phthalazine Hydrochloride]
  IC50: 1.1 nM

## COc1ccc(CCNc2nnc(N3CCC(C#N)CC3)c3ccc(C#N)cc23)cc1Cl [Example 4, 4-(3-Chloro-4-methoxyphenethyl)amino-6-cyano-1-(4-cyanopiperidino)phthalazine Hydrochloride]
  IC50: 0.51 nM

## COc1ccc(CNc2nnc(N3CCC(N)CC3)c3ccc(C#N)cc23)cc1Cl [Example 5, 1-(4-Aminopiperidino)-4-(3-chloro-4-methoxybenzyl)amino-6-cyanophthalazine Dihydrochloride]
  IC50: 0.051 nM

## COc1ccc(CNc2nnc(N3CCC(O)(CO)CC3)c3ccc(C#N)cc23)cc1Cl [Example 6, 4-(3-Chloro-4-methoxybenzyl)amino-6-cyano-1-[4-hydroxy-4-(hydroxymethyl)piperidino]phthalazine Hydrochloride]
  IC50: 0.98 nM

## COc1ccc(CNc2nnc(N3CCC4(CC3)COC(=O)C4)c3ccc(C#N)cc23)cc1Cl [Example 11, 4-[(3-Chloro-4-methoxybenzyl)amino]-1-(3-oxo-2-oxa-8-azaspiro[4.5]dece-8-yl)-6-phthalazine Carbonitrile]
  IC50: 0.68 nM

## COc1ccc(CNc2nnc(N3CCC4(CC3)CC(=O)C4)c3ccc(C#N)cc23)cc1Cl [Example 12, 4-[(3-Chloro-4-methoxybenzyl)amino]-1-(2-oxo-7-azaspiro[3.5]non-7-yl)-6-phthalazine Carbonitrile]
  IC50: 0.54 nM

## COc1ccc(CNc2nnc(C#CC(C)(C)N)c3ccc(C#N)cc23)cc1Cl [Example 25, 1-(3-Amino-3-methyl-1-butynyl)-4-[(3-chloro-4-methoxybenzyl)amino]-6-phthalazinecarbonitrile Hydrochloride]
  IC50: 0.16 nM

## COc1ccc(CNc2nnc(N3CCC(F)(CO)CC3)c3ccc(C#N)cc23)cc1Cl [Example 43, 4-[(3-Chloro-4-methoxybenzyl)amino]-1-[4-fluoro-4-(hydroxymethyl)piperidino]-6-phthalazinecarbonitrile Hydrochloride]
  IC50: 0.23 nM

## COc1ccc(CNc2nnc(N3CCC(=NO)CC3)c3ccc(C#N)cc23)cc1Cl [Example 50, 4-[(3-Chloro-4-methoxybenzyl)amino]-1-(4-hydroxyiminopiperidino)-6-phthalazinecarbonitrile Hydrochloride]
  IC50: 0.24 nM

## COc1ccc(CNc2nnc(N3[C@@H]4CC[C@H]3C[C@@H](O)C4)c3ccc(C#N)cc23)cc1Cl [Example 52, (endo)-4-[(3-Chloro-4-methoxybenzyl)amino]-1-(3-hydroxy-8-azabicyclo[3.2.1]oct-8-yl)-6-phthalazinecarbonitrile Hydrochloride]
  IC50: 0.2 nM

## COc1ccc(CNc2nnc(N3CCC(O)CC3)c3ccc(C#N)cc23)cc1I [Example 76, 1-(4-Hydroxypiperidino)-4-[(3-iodo-4-methoxybenzyl)amino]-6-phthalazinecarbonitrile Hydrochloride]
  IC50: 0.13 nM

## COc1ccc(CNc2nnc(N3CC[C@H](CO)C3)c3ccc(C#N)cc23)cc1Br [Example 79, 4-[(3-Bromo-4-methoxybenzyl)amino]-1-[(3S)-3-(hydroxymethyl)tetrahydro-1H-1-pyrrolyl]-6-phthalazinecarbonitrile Hydrochloride]
  IC50: 0.27 nM

## COc1ccc(CNc2nnc(N3CCC(CO)CC3)c3ccc(C#N)cc23)cc1Br [Example 84, 4-[(3-Bromo-4-methoxybenzyl)amino]-1-[4-(hydroxymethyl)piperidino]-6-phthalazinecarbonitrile Hydrochloride]
  IC50: 0.93 nM

## COc1ccc(CNc2nnc(N3[C@@H]4CC[C@H]3C[C@@H](O)C4)c3ccc(C#N)cc23)cc1Br [Example 85, (endo)-4-[(3-Bromo-4-methoxybenzyl)amino]-1-(3-hydroxy-8-azabicyclo[3.2.1]octo-8-yl)-6-phthalazine Carbonitrile]
  IC50: 0.12 nM

## COc1ccc(CNc2nnc(N3CCC(O)CC3)c3ccc(-n4cccn4)cc23)cc1Cl [Example 105, 1-[4-[(3-Chloro-4-methoxybenzyl)amino]-6-(1H-1-pyrazolyl)-1-phthalazinyl]-4-piperidinol Hydrochloride]
  IC50: 0.1 nM

## CO/N=C/c1ccc2c(N3CCC(O)CC3)nnc(NCc3ccc(OC)c(Cl)c3)c2c1 [Example 110, 4-[(3-Chloro-4-methoxybenzyl)amino]-1-(4-hydroxypiperidino)-6-phthalazinecarbaldehyde O6-Methyloxime Hydrochloride]
  IC50: 0.66 nM

## COc1ccc(CNc2nnc(N3CCC[C@@H](O)C3)c3ccc(C#N)cc23)cc1Cl [Production Example 1, 4-(3-Chloro-4-methoxybenzyl)amino-6-cyano-1-[(3R)-3-hydroxypiperidino]phthalazine Hydrochloride]
  IC50: 0.09 nM

## COc1ccc(CNc2nnc(N3CCC[C@H]3CO)c3ccc(C#N)cc23)cc1Cl [Production Example 3, 4-(3-Chloro-4-methoxybenzyl)amino-6-cyano-1-[(2S)-2-hydroxymethylpyrrolidino]phthalazine Hydrochloride]
  IC50: 0.72 nM

## COc1ccc(CNc2nnc(N3CCCC(CO)C3)c3ccc(C#N)cc23)cc1Cl (centres unmarked) [Production Example 4, 4-(3-Chloro-4-methoxybenzyl)amino-6-cyano-1-(3-hydroxymethylpiperidino)phthalazine Hydrochloride]
  IC50: 0.19 nM

## COc1ccc(CCNc2nnc(N3CCCC(CO)C3)c3ccc(C#N)cc23)cc1Cl (centres unmarked) [Production Example 5, 4-(3-Chloro-4-methoxyphenethyl)amino-6-cyano-1-(3-hydroxymethylpiperidino)phthalazine Hydrochloride]
  IC50: 0.23 nM

## COc1ccc(CCNc2nnc(N3CCC(CO)CC3)c3ccc(C#N)cc23)cc1Cl [Production Example 6, 4-(3-Chloro-4-methoxyphenethyl)amino-6-cyano-1-(4-hydroxymethylpiperidino)phthalazine]
  IC50: 0.5 nM

## COc1ccc(CNc2nnc(N(C)Cc3ccccn3)c3ccc(C#N)cc23)cc1Cl [Production Example 7, 4-(3-Chloro-4-methoxybenzyl)amino-6-cyano-1-[methyl(2-pyridylmethyl)amino]phthalazine Dihydrochloride]
  IC50: 0.03 nM

## COc1ccc(CNc2nnc(N(C)CCc3ccccn3)c3ccc(C#N)cc23)cc1Cl [Production Example 8, 4-(3-Chloro-4-methoxybenzyl)amino-6-cyano-1-{N-methyl-[2-(2-pyridyl)ethyl]amino}phthalazine Dihydrochloride]
  IC50: 0.47 nM

## COc1ccc(CNc2nnc(N3CCC(O)C(C)C3)c3ccc(C#N)cc23)cc1Cl (centres unmarked) [Production Example 11, 4-[(3-Chloro-4-methoxybenzyl)amino]-1-(4-hydroxy-3-methylpiperidino)-6-phthalazinecarbonitrile Hydrochloride]
  IC50: 0.24 nM
